# Assay results: ChEMBL document CHEMBL5120902, “Phytohabitols A-C, δ-Lactone-Terminated Polyketides from an Actinomycete of the Genus Phytohabitans” (J Nat Prod, 2022)
# Tests used:
# [1] = system: Bacillus subtilis; experiment: Antibacterial activity against Bacillus subtilis assessed as inhibition of bacterial growth incubated for 48 hrs by liquid microculture method; type: functional
# [2] = system: Kocuria rhizophila; experiment: Antibacterial activity against Kocuria rhizophila assessed as inhibition of bacterial growth incubated for 48 hrs by liquid microculture method; type: functional
# [3] = Antimigratory activity against human EC17 cells assessed as inhibition of cell migration incubated for 12 hrs by microscopic analysis; type: functional, cell-based; conditions: EC17, 12 h
# [4] = Cytotoxicity against human EC17 cells at 0.18 to 18 uM incubated for 12 hrs; type: toxicity, cell-based; conditions: ec17, 12 h, dose 0.18-18 µM
# [5] = system: Trypanosoma cruzi; experiment: Antitrypanosomal activity against Trypanosoma cruzi epimastigotes assessed as parasite growth inhibition measured after 24 hrs by CellTiter-glo luminescence assay; type: functional, organism-based
# [6] = Cytotoxicity against rat 3Y1 cells assessed as cell growth inhibition incubated for 84 hrs by MTT assay; type: toxicity, cell-based
# [7] = Selectivity ratio of GI50 for cytotoxicity against rat 3Y1 cells to IC50 for antitrypanosomal activity against Trypanosoma cruzi epimastigotes; type: toxicity, cell-based
MIC [1] [µg/mL],MIC [2] [µg/mL],IC50 [3] [µM],IC50 [5] [µM],SMILES,Activity [4],GI50 at 84 h [6] [µM],selectivity ratio [7]
100,100,11,6.4,C/C=C(\C)[C@@H](O)[C@H](C)[C@H](O)C/C=C(C)/C=C(\C)C/C(C)=C/C/C=C(\C)[C@@H](O)[C@@H](C)[C@H]1CC[C@H](CCC)C(=O)O1,Non-Toxic,31,4.9
100,100,15,12,C/C=C(\C)[C@@H](O)[C@H](C)[C@H](O)C/C=C(C)/C=C(\C)C/C(C)=C/C/C=C(\C)[C@@H](O)[C@@H](C)[C@H]1CC[C@H](CCCC)C(=O)O1,Non-Toxic,32,2.8
100,100,8.3,18,C/C=C(\C)[C@@H](O)[C@H](C)[C@H](O)C/C=C(C)/C=C(\C)C/C(C)=C/C/C=C(\C)[C@@H](O)[C@@H](C)[C@H]1CC[C@H](CC)C(=O)O1,Non-Toxic,3.8,0.22

SMILES,MIC [1] [µg/mL],MIC [2] [µg/mL],IC50 [3] [µM],IC50 [5] [µM],Activity [4],GI50 at 84 h [6] [µM],selectivity ratio [7]
O=C(Cn1ccnc1[N+](=O)[O-])NCc1ccccc1 [BENZNIDAZOLE],–,–,–,16,–,–,–
